Assays:
[1] = tested on: S. pneumoniae D39V; assay: fitness (endpoint OD595 vs no drug) (fraction); higher = more growth
Procedure, shortened: (§1)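 Fitness is computed from the optical density at which cultures reach stationary phase, divided by the robust mean of no-drug control wells. Any value above 1 is set to 1. Cultures started at OD595 0.01 in 384-well plates with TSB, LB Lennox or CY at 37 °C, and OD595 was read every 30 min for 14 h against a first-reading background.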

[2] = tested on: B. subtilis 168; assay: as above
Procedure, shortened: as §1

[3] = tested on: S. aureus DSM 20231; assay: Bliss interaction score (quartile over a dose matrix) (fitness difference); higher = more antagonism (negative = synergy)
Procedure, shortened: (§2)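 Growth was read as OD595 when cultures entered stationary phase, and each value was divided by the plate's robust no-drug mean and capped at 1. This normalised ratio is the fitness value, and fitness for each single drug came from the combination data. The Bliss score subtracts the expected fitness, taken as the product, from the observed fitness and is given as quartiles across technical, biological and donor/recipient replicates.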

[4] = tested on: S. pneumoniae D39V; assay: as above
Procedure, shortened: as §2

[5] = tested on: S. aureus Newman; assay: as above
Procedure, shortened: as §2

[6] = tested on: B. subtilis 168; assay: as above
Procedure, shortened: as §2
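Wherever Bliss interaction score (quartile over a dose matrix) is given: first quartile when negative (synergy) and third quartile when positive (antagonism).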
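Wherever fitness (endpoint OD595 vs no drug) is given: OD595 on entry to stationary phase over no-drug wells; at most 1.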

CC(=O)NC[C@H]1CN(c2ccc(N3CCOCC3)c(F)c2)C(=O)O1 [Linezolid] + CN(C)c1cc(NC(=O)CNC(C)(C)C)c(O)c2c1C[C@H]1C[C@H]3[C@H](N(C)C)C(O)=C(C(N)=O)C(=O)[C@@]3(O)C(O)=C1C2=O [Tigecycline]
Details | fitness
[1], first compound 0.105 µg/mL, partner 0.65 µg/mL | 0.829
[1], first compound 0.105 µg/mL, partner 1.3 µg/mL | 0.785
[1], first compound 0.105 µg/mL, partner 2.6 µg/mL | 0.801
[1], first compound 0.2 µg/mL, partner 0.65 µg/mL | 0.712
[1], first compound 0.2 µg/mL, partner 1.3 µg/mL | 0.694
[1], first compound 0.2 µg/mL, partner 2.6 µg/mL | 0.692
[1], first compound 0.21 µg/mL, partner 0.65 µg/mL | 0.718
[1], first compound 0.21 µg/mL, partner 1.3 µg/mL | 0.71
[1], first compound 0.21 µg/mL, partner 2.6 µg/mL | 0.66
[1], first compound 0.4 µg/mL, partner 0.65 µg/mL | 0.588
[1], first compound 0.4 µg/mL, partner 1.3 µg/mL | 0.582
[1], first compound 0.4 µg/mL, partner 2.6 µg/mL | 0.552
[1], first compound 0.42 µg/mL, partner 0.65 µg/mL | 0.393
[1], first compound 0.42 µg/mL, partner 1.3 µg/mL | 0.366
[1], first compound 0.42 µg/mL, partner 2.6 µg/mL | 0.323
[1], first compound 0.8 µg/mL, partner 0.65 µg/mL | 0.252
[1], first compound 0.8 µg/mL, partner 1.3 µg/mL | 0.273
[1], first compound 0.8 µg/mL, partner 2.6 µg/mL | 0.275
[2], first compound 0.125 µg/mL, partner 0.039 µg/mL | 0.542
[2], first compound 0.125 µg/mL, partner 0.078 µg/mL | 0.537
[2], first compound 0.125 µg/mL, partner 0.156 µg/mL | 0.543
[2], first compound 0.25 µg/mL, partner 0.078 µg/mL | 0.0754
[2], first compound 0.25 µg/mL, partner 0.156 µg/mL | 0.0704
[2], first compound 0.5 µg/mL, partner 0.039 µg/mL | 0.0624
[2], first compound 0.5 µg/mL, partner 0.078 µg/mL | 0.0638
[2], first compound 0.5 µg/mL, partner 0.156 µg/mL | 0.0364

fitness, [2], one replicate
Details | partner 0.039 µg/mL | partner 0.078 µg/mL | partner 0.125 µg/mL | partner 0.156 µg/mL | partner 0.25 µg/mL | partner 0.5 µg/mL
first compound 0.0625 µg/mL | 0.872 | 0.848 | – | 0.896 | – | –
first compound 0.125 µg/mL | – | – | ≥ 1 | – | 0.871 | 0.909
first compound 0.25 µg/mL | – | – | 0.906 | – | 0.839 | 0.782
first compound 0.5 µg/mL | – | – | 0.214 | – | 0.0983 | 0.111

Details | Bliss interaction score
[3] | -0.0817
[4] | -0.158
[5] | -0.0561
[6] | 0.11

CC(=O)NC[C@H]1CN(c2ccc(N3CCOCC3)c(F)c2)C(=O)O1 [Linezolid] + CN[C@@H]1[C@H](O[C@H]2[C@H](O[C@H]3[C@H](O)[C@@H](O)[C@H](N=C(N)N)[C@@H](O)[C@@H]3N=C(N)N)O[C@@H](C)[C@]2(O)C=O)O[C@@H](CO)[C@H](O)[C@H]1O [Streptomycin]
fitness
Details | partner 2 µg/mL | partner 4 µg/mL | partner 8 µg/mL
[1], first compound 0.105 µg/mL | 0.763 | 0.752 | 0.803
[1], first compound 0.2 µg/mL | – | 0.781 | 0.684
[1], first compound 0.21 µg/mL | 0.655 | 0.683 | 0.719
[1], first compound 0.4 µg/mL | – | 0.625 | 0.56
[1], first compound 0.42 µg/mL | 0.376 | 0.337 | 0.307
[1], first compound 0.8 µg/mL | – | 0.283 | 0.233
[2], first compound 0.125 µg/mL | 0.543 | 0.454 | 0.0968
[2], first compound 0.25 µg/mL | 0.142 | 0.0931 | 0.0559
[2], first compound 0.5 µg/mL | 0.0384 | 0.0468 | 0.0218

fitness, one replicate
Details | partner 2 µg/mL | partner 4 µg/mL | partner 8 µg/mL | partner 16 µg/mL
[1], first compound 0.2 µg/mL | 0.826 | – | – | 0.584
[1], first compound 0.4 µg/mL | 0.659 | – | – | 0.41
[1], first compound 0.8 µg/mL | 0.292 | – | – | 0.163
[2], first compound 0.0625 µg/mL | 0.938 | 0.556 | 0.0308 | –

Details | Bliss interaction score
[3] | -0.0536
[4] | -0.112
[5] | -0.0504
[6] | 0.0492

CO[C@H]1/C=C/O[C@@]2(C)Oc3c(C)c(O)c4c(O)c(c(/C=N/N5CCN(C)CC5)c(O)c4c3C2=O)NC(=O)/C(C)=C\C=C\[C@H](C)[C@H](O)[C@@H](C)[C@@H](O)[C@@H](C)[C@H](OC(C)=O)[C@@H]1C [Rifampicin] + CN[C@@H]1[C@H](O)[C@H](NC)[C@H]2O[C@@]3(O)C(=O)C[C@@H](C)O[C@H]3O[C@@H]2[C@H]1O [Spectinomycin]
fitness, [1], one replicate
Details | partner 4 µg/mL | partner 8 µg/mL | partner 16 µg/mL
first compound 0.025 µg/mL | 0.848 | 0.716 | 0.282
first compound 0.2 µg/mL | – | – | 0

fitness, [1]
Details | first compound 0.05 µg/mL | first compound 0.1 µg/mL | first compound 0.2 µg/mL
partner 4 µg/mL | 0.497 | 0.297 | 0.0634
partner 8 µg/mL | – | 0.202 | 0.069
partner 16 µg/mL | 0.23 | 0.204 | –

Details | Bliss interaction score
[3] | -0.0309
[4] | -0.153
[5] | 0.0508
[6] | -0.0584

CO[C@H]1/C=C/O[C@@]2(C)Oc3c(C)c(O)c4c(O)c(c(/C=N/N5CCN(C)CC5)c(O)c4c3C2=O)NC(=O)/C(C)=C\C=C\[C@H](C)[C@H](O)[C@@H](C)[C@@H](O)[C@@H](C)[C@H](OC(C)=O)[C@@H]1C [Rifampicin] + CN[C@@H]1[C@H](O[C@H]2[C@H](O[C@H]3[C@H](O)[C@@H](O)[C@H](N=C(N)N)[C@@H](O)[C@@H]3N=C(N)N)O[C@@H](C)[C@]2(O)C=O)O[C@@H](CO)[C@H](O)[C@H]1O [Streptomycin]
[1], one replicate
Details | fitness
first compound 0.025 µg/mL, partner 2 µg/mL | 0.804
first compound 0.025 µg/mL, partner 4 µg/mL | 0.823
first compound 0.025 µg/mL, partner 8 µg/mL | 0.725
first compound 0.05 µg/mL, partner 16 µg/mL | 0.272
first compound 0.1 µg/mL, partner 16 µg/mL | 0.215
first compound 0.2 µg/mL, partner 16 µg/mL | 0.137

fitness, [1]
Details | partner 2 µg/mL | partner 4 µg/mL | partner 8 µg/mL
first compound 0.1 µg/mL | – | 0.292 | 0.304
first compound 0.2 µg/mL | 0.0493 | 0.0964 | 0.185

Details | Bliss interaction score
[3] | -0.0315
[4] | -0.121
[5] | -0.0179
[6] | 0.184

CO[C@H]1/C=C/O[C@@]2(C)Oc3c(C)c(O)c4c(O)c(c(/C=N/N5CCN(C)CC5)c(O)c4c3C2=O)NC(=O)/C(C)=C\C=C\[C@H](C)[C@H](O)[C@@H](C)[C@@H](O)[C@@H](C)[C@H](OC(C)=O)[C@@H]1C [Rifampicin] + CN[C@H](CC(C)C)C(=O)N[C@H]1C(=O)N[C@@H](CC(N)=O)C(=O)N[C@H]2C(=O)N[C@H]3C(=O)N[C@H](C(=O)N[C@H](C(=O)O)c4cc(O)cc(O)c4-c4cc3ccc4O)[C@H](O)c3ccc(c(Cl)c3)Oc3cc2cc(c3O[C@@H]2O[C@H](CO)[C@@H](O)[C@H](O)[C@H]2O[C@H]2C[C@](C)(N)[C@H](O)[C@H](C)O2)Oc2ccc(cc2Cl)[C@H]1O [Vancomycin]
fitness, [1], one replicate
Details | partner 0.125 µg/mL | partner 0.25 µg/mL | partner 0.5 µg/mL
first compound 0.025 µg/mL | 0.903 | 0.823 | 0.267
first compound 0.2 µg/mL | – | 0 | 0

fitness, [1]
Details | partner 0.03125 µg/mL | partner 0.0625 µg/mL | partner 0.125 µg/mL | partner 0.25 µg/mL | partner 0.5 µg/mL
first compound 0.05 µg/mL | 0.886 | 0.846 | – | 0.707 | 0.299
first compound 0.1 µg/mL | 0.537 | 0.476 | – | – | –
first compound 0.2 µg/mL | 0.162 | 0.161 | 0.0937 | – | –

Details | Bliss interaction score
[3] | -0.0199
[4] | 0.135
[5] | 0.0383
[6] | 0.029

CO[C@H]1/C=C/O[C@@]2(C)Oc3c(C)c(O)c4c(O)c(c(/C=N/N5CCN(C)CC5)c(O)c4c3C2=O)NC(=O)/C(C)=C\C=C\[C@H](C)[C@H](O)[C@@H](C)[C@@H](O)[C@@H](C)[C@H](OC(C)=O)[C@@H]1C [Rifampicin] + Cc1cc(NS(=O)(=O)c2ccc(N)cc2)no1 [Sulfamethoxazol]
[1], first compound 0.025 µg/mL, one replicate
Details | fitness
partner 1 µg/mL | 0.837
partner 2 µg/mL | 0.831
partner 4 µg/mL | 0.828

fitness, [1]
Details | partner 1 µg/mL | partner 2 µg/mL | partner 4 µg/mL
first compound 0.05 µg/mL | 0.933 | 0.93 | 0.853
first compound 0.2 µg/mL | 0.0772 | 0.0834 | 0.104

Details | Bliss interaction score
[3] | -0.0278
[4] | 0.0639
[5] | -0.0257
[6] | -0.052

CO[C@H]1/C=C/O[C@@]2(C)Oc3c(C)c(O)c4c(O)c(c(/C=N/N5CCN(C)CC5)c(O)c4c3C2=O)NC(=O)/C(C)=C\C=C\[C@H](C)[C@H](O)[C@@H](C)[C@@H](O)[C@@H](C)[C@H](OC(C)=O)[C@@H]1C [Rifampicin] + Cn1nnc(-c2ccc(-c3ccc(N4C[C@H](CO)OC4=O)cc3F)cn2)n1 [Tedizolid]
fitness, [1], one replicate
Details | partner 0.125 µg/mL | partner 0.25 µg/mL | partner 0.5 µg/mL
first compound 0.025 µg/mL | 0.832 | 0.726 | 0.254
first compound 0.2 µg/mL | – | 0 | 0

fitness, [1]
Details | partner 0.03125 µg/mL | partner 0.0625 µg/mL | partner 0.125 µg/mL | partner 0.25 µg/mL | partner 0.5 µg/mL
first compound 0.05 µg/mL | 0.98 | 0.97 | 0.907 | 0.591 | 0.21
first compound 0.1 µg/mL | 0.743 | 0.79 | – | 0.343 | 0.181
first compound 0.2 µg/mL | 0.197 | 0.233 | 0.122 | – | –

Details | Bliss interaction score
[3] | 0.0203
[4] | 0.133
[5] | -0.0238
[6] | -0.0782

Reference: the supplement of paper PMC10627819
